Data taken from patent publication US9833423B2 (KOREA RESEARCH INSTITUTE OF CHEMICAL TECHNOLOGY, priority 2011, dated 2017).
≈ marks a conversion by molar mass, not a printed value.

Assays:
in vitro = details: human

Row | SMILES | CC50 (in vitro; CC50) [mg/L] | melting point [°C] | CC50 (in vitro; Picorna-virus CC50) [mg/L]
1 | CCOC(=O)Cc1cc(OC)c(OC(C)=O)c(C2(OC(C)=O)C(=O)c3ccccc3C2=O)c1 [Example 1, Ethyl 2-(4-acetoxy-3-(2-acetoxy-1,3-dioxo-2,3-dihydro-1H-inden-2-yl)-5-methoxyphenyl)acetate] | > 100 | 102 to 107 | –
2 | CC(=O)Oc1c(C2(OC(C)=O)C(=O)c3ccccc3C2=O)ccc(Cl)c1Cl [Example 4, 6-(2-Acetoxy-1,3-dioxo-2,3-dihydro-1H-inden-2-yl)-2,3-dichlorophenyl acetate] | 50.4 | 129 to 136 | –
3 | CC(=O)Oc1c(Cl)cc(Cl)cc1C1(OC(C)=O)C(=O)c2ccccc2C1=O [Example 5, 2-(2-Acetoxy-1,3-dioxo-2,3-dihydro-1H-inden-2-yl)-4,6-dichlorophenyl acetate] | 26 | 178 to 180 | –
4 | COc1ccc(OC(C)=O)c(C2(OC(C)=O)C(=O)c3ccccc3C2=O)c1 [Example 7, 2-(2-Acetoxy-1,3-dioxo-2,3-dihydro-1H-inden-2-yl)-4-methoxyphenyl acetate] | > 100 | 184 to 186 | –
5 | CC(=O)Oc1cc(-c2ccccc2)ccc1C1(OC(C)=O)C(=O)c2ccccc2C1=O [Example 8, 4-(2-Acetoxy-1,3-dioxo-2,3-dihydro-1H-inden-2-yl)biphenyl-3-yl acetate] | 7.91 | 165 to 167 | –
6 | CC(=O)Oc1ccc([N+](=O)[O-])cc1C1(OC(C)=O)C(=O)c2ccccc2C1=O [Example 9, 2-(2-Acetoxy-1,3-dioxo-2,3-dihydro-1H-inden-2-yl)-4-nitrophenyl acetate] | > 100 | 163 to 167 | –
7 | CC(=O)Oc1ccc(-c2ccccc2)cc1C1(OC(C)=O)C(=O)c2ccccc2C1=O [Example 10, 3-(2-Acetoxy-1,3-dioxo-2,3-dihydro-1H-inden-2-yl)biphenyl-4-yl acetate] | 7.85 | 196 to 198 | –
8 | CCCc1ccc(OC(C)=O)c(C2(OC(C)=O)C(=O)c3ccccc3C2=O)c1 [Example 11, 2-(2-Acetoxy-1,3-dioxo-2,3-dihydro-1H-inden-2-yl)-4-propylphenyl acetate] | 8.42 | 108 to 111 | –
9 | CCc1ccc(OC(C)=O)c(C2(OC(C)=O)C(=O)c3ccccc3C2=O)c1 [Example 12, 2-(2-Acetoxy-1,3-dioxo-2,3-dihydro-1H-inden-2-yl)-4-ethylphenyl acetate] | 74.1 | 153 to 154 | –
10 | CCC(C)c1ccc(OC(C)=O)c(C2(OC(C)=O)C(=O)c3ccccc3C2=O)c1 (stereo not drawn) [Example 13, 2-(2-Acetoxy-1,3-dioxo-2,3-dihydro-1H-inden-2-yl)-4-sec-butylphenyl acetate] | 7.93 | 118 to 120 | –
11 | CC(=O)Oc1ccc(C(C)(C)C)cc1C1(OC(C)=O)C(=O)c2ccccc2C1=O [Example 14, 2-(2-Acetoxy-1,3-dioxo-2,3-dihydro-1H-inden-2-yl)-4-tert-butylphenyl acetate] | 8.26 | 195 to 196 | –
12 | CC(=O)Oc1cc(C)c(C)c(C)c1C1(OC(C)=O)C(=O)c2ccccc2C1=O [Example 16, 2-(2-Acetoxy-1,3-dioxo-2,3-dihydro-1H-inden-2-yl)-3,4,5-trimethylphenyl acetate] | 8.87 | 238 to 242 | –
13 | CCC(C)(C)c1ccc(OC(C)=O)c(C2(OC(C)=O)C(=O)c3ccccc3C2=O)c1 [Example 17, 2-(2-Acetoxy-1,3-dioxo-2,3-dihydro-1H-inden-2-yl)-4-tert-pentylphenyl acetate] | 9.3 | 146 to 151 | –
14 | CC(=O)Oc1cc(C)cc(C2(OC(C)=O)C(=O)c3ccccc3C2=O)c1OC(C)=O [Example 18, Acetic acid 2-(2,3-diacetoxy-5-methyl-phenyl)-1,3-dioxo-indan-2-yl ester] | > 100 | 192 to 194 | –
15 | CC(=O)c1ccc(C2(O)C(=O)c3ccccc3C2=O)c(O)c1 [Example 20, 2-(4-Acetyl-2-hydroxy-phenyl)-2-hydroxy-indan-1,3-dione] | > 100 | 177 to 180 | –
16 | CC(C)c1ccc(C2(O)C(=O)c3ccccc3C2=O)c(OCc2ccccc2)c1 [Example 24, 2-(2-Benzyloxy-4-isopropyl-phenyl)-2-hydroxy-indan-1,3-dione] | > 100 | 197 to 199 | –
17 | COC1(c2ccc(C(C)C)cc2OCc2ccccc2)C(=O)c2ccccc2C1=O [Example 25, 2-(2-Benzyloxy-4-isopropyl-phenyl)-2-methoxy-indan-1,3-dione] | > 100 | 140 to 144 | –
18 | Cc1cc(C2(O)C(=O)c3ccccc3C2=O)cc(C)c1O [Example 26, 2-Hydroxy-2-(4-hydroxy-3,5-dimethyl-phenyl)-indan-1,3-dione] | > 100 | 210 to 213 | –
19 | COc1ccc2c(c1)C(=O)C(OC(C)=O)(c1ccc(C(C)C)cc1OC(C)=O)C2=O (stereo not drawn) [Example 27, 2-(2-Acetoxy-4-isopropylphenyl)-5-methoxy-1,3-dioxo-2,3-dihydro-1H-inden-2-yl acetate] | 9.5 | 146 to 148 | –
20 | COC1(c2ccc(C(C)C)cc2O)C(=O)c2ccccc2C1=O [Example 28, 2-(2-Hydroxy-4-isopropylphenyl)-2-methoxy-1H-inden-1,3(2H)-dione] | 9.2 (≈ 29.6 µM) | 272 to 274 | –

Row | SMILES | CC50 (in vitro; CC50) [mg/L] | melting point [°C] | CC50 (in vitro; Picorna-virus CC50) [mg/L]
21 | CC(C)c1ccc(C2(OC(=O)C(C)(C)C)C(=O)c3ccccc3C2=O)c(OC(=O)C(C)(C)C)c1 [Example 29, 2-(1,3-Dioxo-2-(pivaloyloxy)-2,3-dihydro-1H-inden-2-yl)-5-isopropylphenyl pivalate] | > 100 | 121 to 124 | –
22 | CCN(CC)C(=O)Oc1cc(C(C)C)ccc1C1(OC(=O)N(CC)CC)C(=O)c2ccccc2C1=O [Example 33, Diethyl-carbamic acid 2-(2-diethylcarbamoyloxy-1,3-dioxo-indan-2-yl)-5-isopropyl-phenyl ester] | > 100 | 103 to 105 | –
23 | CCN(CC)C(=O)Oc1cc(C(C)C)ccc1C1(O)C(=O)c2ccccc2C1=O [Example 34, 2-(2-Hydroxy-1,3-dioxo-2,3-dihydro-1H-inden-2-yl)-5-isopropylphenyl diethylcarbamate] | 46.2 (≈ 117 µM) | 103 to 106 | –
24 | Cc1cc(C2(O)C(=O)c3ccccc3C2=O)c(C)cc1O [Example 35, 2-Hydroxy-2-(4-hydroxy-2,5-dimethylphenyl)-1H-inden-1,3(2H)-dione] | 59.8 (≈ 212 µM) | 228 to 230 | –
25 | COc1cc(C(C)C)ccc1C1(O)C(=O)c2cccc([N+](=O)[O-])c2C1=O (stereo not drawn) [Example 38, 2-Hydroxy-2-(4-isopropyl-2-methoxyphenyl)-4-nitro-2H-inden-1,3-dione] | > 100 | – | –
26 | COc1cc(C(C)C)ccc1C1(N=[N+]=[N-])C(=O)c2cccc([N+](=O)[O-])c2C1=O (stereo not drawn) [Example 40, 2-Azido-2-(4-isopropyl-2-methoxyphenyl)-4-nitro-2H-inden-1,3-dione] | 53.2 (≈ 140 µM) | – | –
27 | COc1cc(C(C)C)ccc1C1(O)C(=O)c2cccc(N)c2C1=O (stereo not drawn) [Example 41, 4-Amino-2-hydroxy-2-(4-isopropyl-2-methoxyphenyl)-2H-inden-1,3-dione] | – | 219 to 220 | –
28 | COc1cc(C(C)C)ccc1C1(O)C(=O)c2c(N)ccc(NC(C)=O)c2C1=O (stereo not drawn) [Example 44, N-(7-Amino-2-hydroxy-2-(4-isopropyl-2-methoxyphenyl)-1,3-dioxo-2,3-dihydro-1H-inden-4-yl)acetamide] | > 117 | – | –
29 | CC(=O)Oc1ccc(C)nc1C1(OC(C)=O)C(=O)c2ccccc2C1=O [Example 71, 2-(2-Acetoxy-1,3-dioxo-2,3-dihydro-1H-inden-2-yl)-6-methylpyridin-3-yl acetate] | > 100 | – | –
30 | O=C1c2ccccc2C(=O)C1(O)c1ncc(Cl)cc1O [Example 73, 2-(5-Chloro-3-hydroxypyridin-2-yl)-2-hydroxy-1H-inden-1,3(2H)-dione] | > 100 | – | –
31 | O=C1c2ccccc2C(=O)C1(O)c1cc2ncccc2cc1O [Example 75, 2-Hydroxy-2-(6-hydroxyquinolin-7-yl)-1H-inden-1, 3(2H)-dione] | > 100 | – | –
32 | CC(=O)Nc1cc(C)c(C)cc1C1(O)C(=O)c2ccccc2C1=O [Example 86, N-(2-(2-Hydroxy-1,3-dioxo-2,3-dihydro-1H-inden-2-yl)-4,5-dimethylphenyl)acetamide] | – | – | 4.63 (≈ 14.3 µM)
33 | CCc1ccc(C2(O)C(=O)c3ccccc3C2=O)c(NC(C)=O)c1 [Example 88, N-(5-Ethyl-2-(2-hydroxy-1,3-dioxo-2,3-dihydro-1H-inden-2-yl)phenyl)acetamide] | – | – | 4.49 (≈ 13.9 µM)
34 | CCCC(=O)Nc1cc(C)c(C)cc1C1(O)C(=O)c2ccccc2C1=O [Example 89, N-(2-(2-Hydroxy-1,3-dioxo-2,3-dihydro-1H-inden-2-yl)-4,5-dimethylphenyl)butyramide] | – | – | 10.7 (≈ 30.4 µM)
35 | Cc1cc(NC(=O)C(C)C)c(C2(O)C(=O)c3ccccc3C2=O)cc1C [Example 90, N-(2-(2-Hydroxy-1,3-dioxo-2,3-dihydro-1H-inden-2-yl)-4,5-dimethylphenyl)isobutyramide] | – | – | 38.3 (≈ 109 µM)
36 | COc1cccc(C2C(=O)c3ccccc3C2=O)c1 [Example 104, 2-(3-Methoxyphenyl)-2H-inden-1,3-dione] | – | – | > 100
37 | CCOC(=O)Oc1cc(C(C)C)ccc1C1(OC(=O)OCC)C(=O)c2cccnc2C1=O (stereo not drawn) [Example 105, ethyl (6-(2-((ethoxycarbonyl)oxy)-4-isopropylphenyl)-5,7-dioxo-6,7-dihydro-5H-cyclopenta[b]pyridin-6-yl)carbonate] | – | – | > 100
38 | COc1cc(NC(=O)C(C)C)c(C2(O)C(=O)c3cccc(N)c3C2=O)cc1OC (stereo not drawn) [Example 107, N-[2-(4-Amino-2-hydroxy-1,3-dioxo-indan-2-yl)-4,5-dimethoxy-phenyl]-isobutyramide] | – | – | > 100
39 | COc1cc(NC(=O)C(C)C)c(C2(O)C(=O)c3cc(OC)c(OC)cc3C2=O)cc1OC [Example 108, N-[2-(2-Hydroxy-5,6-dimethoxy-1,3-dioxo-indan-2-yl)-4,5-dimethoxy-phenyl]-isobutyramide] | – | – | > 100
